Test results as given in patent publication US20240293413A1, “COMPOUND AND METHOD FOR TREATING CHEMOTHERAPY-RELATED GASTROINTESTINAL SIDE EFFECTS” (ONQUALITY PHARMACEUTICALS CHINA LTD., priority 2021, published 2024).

Assays:
[1] = test system: Chemotherapeutic agent-caused constipation models of Balb/c mice; assay: Examples 272-342 (Table 5): oral CDK inhibitor, relief of constipation caused by a chemotherapeutic agent; format: in vivo
Summary of the method: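 Balb/c mice, 10 per group: control, chemotherapeutic agent alone, or intragastric CDK inhibitor followed by the chemotherapeutic agent. Feces produced within 3 hours were recorded daily, and feces reduction rate (%) was calculated relative to the control group.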

[2] = test system: constipation caused by a chemotherapeutic agent in Balb/c mice; assay: Examples 406-443 (Table 8): various administration modes of the CDK inhibitor, relief of constipation caused by a chemotherapeutic agent; format: in vivo
Excerpt: Balb/c mice were fed for 1 week, and then divided into groups. The experiment was divided into a control group, a chemotherapeutic agent group, CDK inhibitor groups (including an oral administration group of a CDK inhibitor, an intravenous injection group of a CDK inhibitor, an intraperitoneal injection group of a CDK inhibitor, an intramuscular injection group of a CDK inhibitor, a local administration group of a CDK inhibitor), each of which comprised 10 mice, to perform the administration experiment, for which the administration dosage, mode, time and frequency were shown in Table 8. The control group: being administered with the same solvent as that used in the CDK inhibitor group (the time and mode were shown in Table 8), and then being injected/intragastrically administered with the same solvent as that used in the chemotherapeutic agent group (the administration mode was shown in Table 8): the chemotherapeutic agent group: being administered with the same solvent as that used in the CDK inhibitor group (the time and mode were shown in Table 8), and then being injected/intragastrically administered with the chemotherapeutic agent (the type, administration mode and dosage were shown in Table 8): the oral administration group of the CDK inhibitor: being intragastrically administered with the CDK inhibitor (the time was shown in Table 8), and then being administered with the chemotherapeutic agent (the mode and dosage were shown in Table 8): the intravenous injection group of the CDK inhibitor: being injected with the CDK inhibitor through tail vein (the time was shown in Table 8), and then being administered with the chemotherapeutic agent (the mode and dosage were shown in Table 8): the intraperitoneal injection group of the CDK inhibitor: being intraperitoneally injected with the CDK inhibitor (the time was shown in Table 8), and then being administered with the chemotherapeutic agent (the mode and dosage were shown in Table 8): the intramuscular injection group of the CDK inhibitor: being intramuscularly injected with the CDK inhibitor (the time was shown in Table 8), and then being administered with the chemotherapeutic agent (the mode and dosage were shown in Table 8); and the local administration group of the CDK inhibitor: the hair on the abdomen of mice was shaved (about 2 cm*2 cm), being applied with the CDK inhibitor (the time was shown in Table 8), and then being administered with the chemotherapeutic agent (the mode and dosage were shown in Table 8).
Feces reduction rate (%)=(the control group−the chemotherapeutic agent group or the CDK inhibitor group)/the control group*100%
The feces amount of mice within 3 hours was observed and recorded every day.
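Further: percent of treated mice relieved versus chemotherapy group by feces reduction rate.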

CC(=O)c1c(C)c2cnc(Nc3ccc(N4CCNCC4)cn3)nc2n(C2CCCC2)c1=O [Palbociclib]
Relative remission rate ([1]; Example 293, Fluorouracil (5-Fu) oral administration 300 mg/kg single, CDK inhibitor oral 150 mg/kg single, 8 h before, cycle 7 days): 50% | Relative remission rate ([1]; Example 304, Irinotecan (CPT-11) intraperitoneal injection 260 mg/kg single, CDK inhibitor oral 150 mg/kg single, 0.5 h before, cycle 7 days): 40% | Relative remission rate ([1]; Example 305, Irinotecan (CPT-11) intraperitoneal injection 260 mg/kg single, CDK inhibitor oral 150 mg/kg single, 4 h before, cycle 7 days): 60% | Relative remission rate ([1]; Example 306, Irinotecan (CPT-11) intraperitoneal injection 260 mg/kg single, CDK inhibitor oral 150 mg/kg single, 8 h before, cycle 7 days): 80% | Relative remission rate ([1]; Example 307, Irinotecan (CPT-11) intraperitoneal injection 260 mg/kg single, CDK inhibitor oral 150 mg/kg single, 12 h before, cycle 7 days): 70% | Relative remission rate ([1]; Example 308, Irinotecan (CPT-11) intraperitoneal injection 260 mg/kg single, CDK inhibitor oral 150 mg/kg single, 24 h before, cycle 7 days): 30% | Relative remission rate ([1]; Example 309, Irinotecan (CPT-11) intraperitoneal injection 260 mg/kg single, CDK inhibitor oral 150 mg/kg single, 48 h before, cycle 7 days): 0% | Relative remission rate ([1]; Example 333, Cytarabine (Ara-C) intravenous injection 600 mg/kg single, CDK inhibitor oral 150 mg/kg single, 6 h before, cycle 8 days): 50% | Relative remission rate of other administration mode ([2]; Example 406, Doxorubicin (Dox) intraperitoneal injection 12 mg/kg single, CDK inhibitor intravenous injection 150 mg/kg single, 0.5 h before, cycle 8 days): 10% | Relative remission rate of oral administration ([2]; Example 406, Doxorubicin (Dox) intraperitoneal injection 12 mg/kg single, CDK inhibitor oral 150 mg/kg single, 0.5 h before, cycle 8 days): 20% | Relative remission rate of other administration mode ([2]; Example 407, Doxorubicin (Dox) intraperitoneal injection 12 mg/kg single, CDK inhibitor intravenous injection 150 mg/kg single, 4 h before, cycle 8 days): 10% | Relative remission rate of oral administration ([2]; Example 407, Doxorubicin (Dox) intraperitoneal injection 12 mg/kg single, CDK inhibitor oral 150 mg/kg single, 4 h before, cycle 8 days): 30% | Relative remission rate of other administration mode ([2]; Example 408, Doxorubicin (Dox) intraperitoneal injection 12 mg/kg single, CDK inhibitor intravenous injection 150 mg/kg single, 8 h before, cycle 8 days): 10% | Relative remission rate of oral administration ([2]; Example 408, Doxorubicin (Dox) intraperitoneal injection 12 mg/kg single, CDK inhibitor oral 150 mg/kg single, 8 h before, cycle 8 days): 30% | Relative remission rate of other administration mode ([2]; Example 409, Doxorubicin (Dox) intraperitoneal injection 12 mg/kg single, CDK inhibitor intravenous injection 150 mg/kg single, 12 h before, cycle 8 days): 20% | Relative remission rate of oral administration ([2]; Example 409, Doxorubicin (Dox) intraperitoneal injection 12 mg/kg single, CDK inhibitor oral 150 mg/kg single, 12 h before, cycle 8 days): 50% | Relative remission rate of other administration mode ([2]; Example 410, Doxorubicin (Dox) intraperitoneal injection 12 mg/kg single, CDK inhibitor intravenous injection 150 mg/kg single, 24 h before, cycle 8 days): 20% | Relative remission rate of oral administration ([2]; Example 410, Doxorubicin (Dox) intraperitoneal injection 12 mg/kg single, CDK inhibitor oral 150 mg/kg single, 24 h before, cycle 8 days): 40% | Relative remission rate of other administration mode ([2]; Example 415, Etoposide (Etop1) intraperitoneal injection 100 mg/kg single, CDK inhibitor intravenous injection 150 mg/kg single, 0.5 h before, cycle 8 days): 10% | Relative remission rate of oral administration ([2]; Example 415, Etoposide (Etop1) intraperitoneal injection 100 mg/kg single, CDK inhibitor oral 150 mg/kg single, 0.5 h before, cycle 8 days): 20% | Relative remission rate of other administration mode ([2]; Example 416, Etoposide (Etop1) intraperitoneal injection 100 mg/kg single, CDK inhibitor intravenous injection 150 mg/kg single, 4 h before, cycle 8 days): 20% | Relative remission rate of oral administration ([2]; Example 416, Etoposide (Etop1) intraperitoneal injection 100 mg/kg single, CDK inhibitor oral 150 mg/kg single, 4 h before, cycle 8 days): 40% | Relative remission rate of other administration mode ([2]; Example 417, Etoposide (Etop1) intraperitoneal injection 100 mg/kg single, CDK inhibitor intravenous injection 150 mg/kg single, 8 h before, cycle 8 days): 20% | Relative remission rate of oral administration ([2]; Example 417, Etoposide (Etop1) intraperitoneal injection 100 mg/kg single, CDK inhibitor oral 150 mg/kg single, 8 h before, cycle 8 days): 40% | Relative remission rate of other administration mode ([2]; Example 418, Etoposide (Etop1) intraperitoneal injection 100 mg/kg single, CDK inhibitor intravenous injection 150 mg/kg single, 12 h before, cycle 8 days): 10% | Relative remission rate of oral administration ([2]; Example 418, Etoposide (Etop1) intraperitoneal injection 100 mg/kg single, CDK inhibitor oral 150 mg/kg single, 12 h before, cycle 8 days): 30% | Relative remission rate of other administration mode ([2]; Example 419, Etoposide (Etop1) intraperitoneal injection 100 mg/kg single, CDK inhibitor intravenous injection 150 mg/kg single, 24 h before, cycle 8 days): 10% | Relative remission rate of oral administration ([2]; Example 419, Etoposide (Etop1) intraperitoneal injection 100 mg/kg single, CDK inhibitor oral 150 mg/kg single, 24 h before, cycle 8 days): 30% | Relative remission rate of other administration mode ([2]; Example 422, Etoposide and cisplatin intravenous injection 50 and 5 mg/kg single, CDK inhibitor intravenous injection 150 mg/kg single, 0.5 h before, cycle 7 days): 10% | Relative remission rate of oral administration ([2]; Example 422, Etoposide and cisplatin intravenous injection 50 and 5 mg/kg single, CDK inhibitor oral 150 mg/kg single, 0.5 h before, cycle 7 days): 40% | Relative remission rate of other administration mode ([2]; Example 423, Etoposide and cisplatin intravenous injection 50 and 5 mg/kg single, CDK inhibitor intravenous injection 150 mg/kg single, 24 h before, cycle 7 days): 20% | Relative remission rate of oral administration ([2]; Example 423, Etoposide and cisplatin intravenous injection 50 and 5 mg/kg single, CDK inhibitor oral 150 mg/kg single, 24 h before, cycle 7 days): 60% | Relative remission rate of other administration mode ([2]; Example 437, Gemcitabine intravenous injection 120 mg/kg single, CDK inhibitor intravenous injection 200 mg/kg single, 12 h before, cycle 8 days): 20% | Relative remission rate of oral administration ([2]; Example 437, Gemcitabine intravenous injection 120 mg/kg single, CDK inhibitor oral 200 mg/kg single, 12 h before, cycle 8 days): 50%

CCN1CCN(Cc2ccc(Nc3ncc(F)c(-c4cc(F)c5nc(C)n(C(C)C)c5c4)n3)nc2)CC1 [Abemaciclib]
Relative remission rate ([1]; Example 295, Fluorouracil (5-Fu) intramuscular injection 200 mg/kg single, CDK inhibitor oral 100 mg/kg single, 22 h before, cycle 7 days): 60% | Relative remission rate ([1]; Example 296, Oxaliplatin intraperitoneal injection 20 mg/kg single, CDK inhibitor oral 100 mg/kg single, 0.5 h before, cycle 8 days): 50% | Relative remission rate ([1]; Example 297, Oxaliplatin intraperitoneal injection 20 mg/kg single, CDK inhibitor oral 100 mg/kg single, 4 h before, cycle 8 days): 40% | Relative remission rate ([1]; Example 298, Oxaliplatin intraperitoneal injection 20 mg/kg single, CDK inhibitor oral 100 mg/kg single, 8 h before, cycle 8 days): 60% | Relative remission rate ([1]; Example 299, Oxaliplatin intraperitoneal injection 20 mg/kg single, CDK inhibitor oral 100 mg/kg single, 12 h before, cycle 8 days): 60% | Relative remission rate ([1]; Example 300, Oxaliplatin intraperitoneal injection 20 mg/kg single, CDK inhibitor oral 100 mg/kg single, 24 h before, cycle 8 days): 40% | Relative remission rate ([1]; Example 301, Oxaliplatin intraperitoneal injection 20 mg/kg single, CDK inhibitor oral 100 mg/kg single, 48 h before, cycle 8 days): 0% | Relative remission rate ([1]; Example 312, Irinotecan (CPT-11) intravenous injection 260 mg/kg single, CDK inhibitor oral 150 mg/kg single, 14 h before, cycle 7 days): 50% | Relative remission rate ([1]; Example 324, Gemcitabine and paclitaxel intraperitoneal injection 60 (G) 10 (P) mg/kg single, CDK inhibitor oral 150 mg/kg single, 24 h before, cycle 8 days): 60% | Relative remission rate ([1]; Example 342, Methotrexate (MTX) intraperitoneal injection 300 mg/kg single, CDK inhibitor oral 150 mg/kg single, 8 h before, cycle 7 days): 30% | Relative remission rate of other administration mode ([2]; Example 429, Carboplatin intravenous injection 120 mg/kg single, CDK inhibitor intramuscular injection 150 mg/kg single, 8 h before, cycle 10 days): 20% | Relative remission rate of oral administration ([2]; Example 429, Carboplatin intravenous injection 120 mg/kg single, CDK inhibitor oral 150 mg/kg single, 8 h before, cycle 10 days): 60% | Relative remission rate of other administration mode ([2]; Example 430, Gemcitabine intraperitoneal injection 120 mg/kg single, CDK inhibitor intraperitoneal injection 150 mg/kg single, 0.5 h before, cycle 8 days): 10% | Relative remission rate of oral administration ([2]; Example 430, Gemcitabine intraperitoneal injection 120 mg/kg single, CDK inhibitor oral 150 mg/kg single, 0.5 h before, cycle 8 days): 40% | Relative remission rate of other administration mode ([2]; Example 431, Gemcitabine intraperitoneal injection 120 mg/kg single, CDK inhibitor intraperitoneal injection 150 mg/kg single, 4 h before, cycle 8 days): 10% | Relative remission rate of oral administration ([2]; Example 431, Gemcitabine intraperitoneal injection 120 mg/kg single, CDK inhibitor oral 150 mg/kg single, 4 h before, cycle 8 days): 40% | Relative remission rate of other administration mode ([2]; Example 432, Gemcitabine intraperitoneal injection 120 mg/kg single, CDK inhibitor intraperitoneal injection 150 mg/kg single, 8 h before, cycle 8 days): 10% | Relative remission rate of oral administration ([2]; Example 432, Gemcitabine intraperitoneal injection 120 mg/kg single, CDK inhibitor oral 150 mg/kg single, 8 h before, cycle 8 days): 40% | Relative remission rate of other administration mode ([2]; Example 433, Gemcitabine intraperitoneal injection 120 mg/kg single, CDK inhibitor intraperitoneal injection 150 mg/kg single, 12 h before, cycle 8 days): 20% | Relative remission rate of oral administration ([2]; Example 433, Gemcitabine intraperitoneal injection 120 mg/kg single, CDK inhibitor oral 150 mg/kg single, 12 h before, cycle 8 days): 60% | Relative remission rate of other administration mode ([2]; Example 434, Gemcitabine intraperitoneal injection 120 mg/kg single, CDK inhibitor intraperitoneal injection 150 mg/kg single, 24 h before, cycle 8 days): 20% | Relative remission rate of oral administration ([2]; Example 434, Gemcitabine intraperitoneal injection 120 mg/kg single, CDK inhibitor oral 150 mg/kg single, 24 h before, cycle 8 days): 60%
